Laboratory results from patent US20240116889A1, “ANTIVIRAL COMPOUNDS AND METHODS” (priority 2019, published 2024).

Experiments:
[1] = test system: USSR H1N1 virus; assay type: cell-based, influenza A virus (A/USSR/77)
[2] = test system: USSR H1N1 virus; assay type: cell-based, influenza A virus (A/USSR/77); remark: listed apart in the source
[3] = test system: NPTr cells; conditions: for cell viability after priming: 30 min priming at doses used for infection studies
[4] = test system: extracellular Ca^2+ influx; test: Intracellular Ca2+ monitoring assay (Fluo-8) in NPTr cells; assay type: cell-based, pig
[5] = test system: human coronavirus OC43; assay type: cell-based; conditions: MRC-5 cells; TG 0.05 or 0.5 μM 30 min pre-infection; HC pre-infection or continuous
[6] = test system: SARS-CoV-2; test: SARS-CoV-2 replication in Calu-3 cells (RT-qPCR of media); assay type: cell-based; conditions: Calu-3 cells; […]; HC primed and continuously present
[7] = test system: A549 cells; test: Cell viability of A549 cells (CellTiter-Glo 2.0); assay type: cell-based, human; conditions: RDV continuous, TG 30 min, overnight
Procedure: (A) A549 cells were primed with indicated TG, 0.3 μM RDV or DMSO control for 30 min, washed twice with PBS and infected with 0.01 MOI of CoV OC43 for 2 h, after which cells were washed again with PBS and incubated in fresh infection media (OptiMEM supplemented with 0.1 μg/ml TPCK-trypsin for TG primed cells, or fresh media in the continuous presence of RDV. At 24, 48 and 72 hpi, viral RNA extraction was performed on collected supernatants followed by one-step reverse transcription qPCR to detect the relative copy number of hCoV OC43 replicase polyprotein lab RNA, based on relative Ct method. Indicated significance relative to corresponding RDV-treated cells based on 2-way ANOVA Tukey's multiple comparisons test. (B) As in (A), A549 cells were primed continuously with RDV, or for 30 min with indicated TG or DMSO, washed, cultured overnight and subjected to cell viability assay (CellTiter-Glo 2.0 Cell Viability Assay, Promega).

[8] = test system: RSV (A2 strain, ATCC VR-1540); test: RSV production from infected HEp2 cells (immuno-detection / RT-qPCR); assay type: cell-based, human respiratory syncytial virus; conditions: HEp-2 cells; TG 30 min priming, Riba continuously present; four days post-infection
[9] = test system: pdm H1N1 virus; assay type: cell-based, influenza A virus (A/California/07/2009)
[10] = test system: RIG-I, OAS1 and PKR; assay type: cell-based, pig; conditions: NPTr cells (TG also NHBE cells and myoblasts); priming before or during infection

`CC1=C2CC[C@@H](C)[C@H]2[C@H]2[C@@H](CC1)C2(C)C` [(+)-ledene, reference compound] was tested, and the “progeny virus output vs DMSO control” value [1] was “reduced virus production like that of TG” and the “progeny virus output” value [2] was “dramatic reduction in progeny virus output”.
`Cc1nnsc1C(=O)Nc1ccc(-n2nc(C(F)(F)F)cc2C(F)(F)F)cc1` [BTP2] was tested, and the “cell viability after priming” value [3] was “Non-toxic” and the “progeny virus output vs DMSO control” value [1] was “small increase in progeny virus release”.
For `CC(=O)C1=C(O)[C@@H]2[C@H]3c4c[nH]c5cccc(c45)C[C@H]3C(C)(C)N2C1=O` [CPA, Cyclopiazonic acid], the “reduction in ATP production” value ([3]; 5 μM CPA for 30 min, 24 h incubation) was 8.3% and the “concentration from which Ca^2+ influx was detected” value [4] was at least 10 µM.
`CCN(CCO)CCCC(C)Nc1ccnc2cc(Cl)ccc12` (stereo not drawn) [HC, hydroxychloroquine, reference compound] was tested, and the “hCoV OC43 replication / progeny production” value [5] was “required its continuous presence during infection” and the “SARS-CoV-2 replication” value [6] was “no consistent effect”.
With `CCC(CC)COC(=O)[C@H](C)N[P@](=O)(OC[C@H]1O[C@@](C#N)(c2ccc3c(N)ncnn23)[C@H](O)[C@@H]1O)Oc1ccccc1` [RDV, remdesivir, reference compound] the “cell viability” value [7] was “no adverse effect on cell viability”.
For `NC(=O)c1ncn([C@@H]2O[C@H](CO)[C@@H](O)[C@H]2O)n1` [Riba, ribavirin, reference compound], the “RSV progeny virus production, viral M-gene RNA” value [8] was “significantly inhibited”.
For `COc1ccc(OC)c(-c2ccc(NC(=O)c3ccncc3F)cc2)c1` [Synta66], the “cell viability after priming” value [3] was “Non-toxic” and the “progeny virus output vs DMSO control” value [1] was “small increase in progeny virus release”.
In the case of `C[C@@H]1CC[C@H]2[C@@H](C)C(=O)O[C@@H]3O[C@@]4(C)CC[C@@H]1[C@]32OO4` [artemisinin], the “progeny virus output vs DMSO control” value [9] is reported as “reduces progeny viral output” and the “progeny virus output vs DMSO control” value [1] is reported as “reduces progeny viral output”.
`C=C1C(=O)O[C@@H]2[C@H]3C(C)=CC(=O)C3=C(C)CC[C@@H]12` [dehydroleucodine, reference compound] was tested, and the “progeny virus output vs DMSO control” value [1] was “reduced virus production like that of TG” and the “progeny virus output” value [2] was “reduced progeny virus output”.
In the case of `CC1=C2[C@H](/C=C(\C)C(=O)O)CC[C@@H](C)[C@H]2CC1` [valerenic acid], the “progeny virus output vs DMSO control” value [1] is reported as “reduced USSR H1N1 virus production like that of TG”.
In the case of tunicamycin, the “expression of type I IFN associated genes in response to infection” value [10] is reported as “little change in the expression of type I IFN associated genes”, the “progeny virus output vs DMSO control” value [9] is reported as “only slightly reduced virus production” and the “virus production relative to correspondingly infected TG primed cells” value ([9]; NPTr cells, […]) is reported as 2.8 times. For the same compound, the “cell viability after priming” value [3] was “did not affect cell viability”, the “progeny virus output vs DMSO control” value [1] was “only slightly reduced virus production” and the “virus production relative to correspondingly infected TG primed cells” value ([1]; NPTr cells, […]) was 7.5 times. The “extracellular Ca^2+ influx” value ([4]; non-toxic doses (CPA up to 5 μM; TG 10 min)) was “did not induce Ca^2+ influx”.
